We go through 5 molecules from publication PMC8001704, “A Review of Red Yeast Rice, a Traditional Fermented Food in Japan and East Asia: Its Characteristic Ingredients and Application in the Maintenance and Improvement of Health in Lipid Metabolism and the Circulatory System” (Molecules, 2021).

Details of data set [1]: method as in PMID 27422746. The note with it: cited from earlier work.
Data set [2] has as its system peroxisome proliferator-activated receptors (PPARs), e.g., PPARα. Also on record: method as in PMID 24275089. The note with it: cited from earlier work.
Data set [3] can be described thus: Pharmacokinetics of monacolin K in plasma after single oral administration of purified monacolin K or red yeast rice. It is filed as in vivo, male SD rats. The following applies: for AUC(0-t) / Cmax: male, SD, rat, po. An excerpt:
Recently, we compared the pharmacokinetics of monacolin K in blood after oral administration of purified monacolin K (lactone form, 99% purity) and red yeast rice produced by solid-state fermentation in male SD rats (7 weeks old). Most of the monacolin K in the plasma was detected in its acid form: both in the monacolin K-administered group and the red yeast rice -administered group. […] The medicinal benefit of red yeast rice is considered to be different to that of monacolin K alone. […] Since red yeast rice contains various ingredients, synergistic effects are expected.
Figure 14 Plasma concentrations of lactone form and acid form of monacolin K after single administration of purified monacolin K or red yeast rice (40 mg/kg monacolin K or dose of red yeast rice equivalent to 40 mg/kg monacolin K) in male SD rats (7 weeks old). Each bar indicates the mean ± standard deviation, quantified according to the reference method.

Details of data set [4]: method as in PMID 27014344, doi:10.17546/msd.58298. The following applies: cited from earlier work.
Data set [5] has as its system Rabbits fed on a high-lipid diet. Further details: method as in PMID 1376794. The following applies: cited from earlier work.
In data set [6] the test system is Patients with hypercholesterolemia. Further details: method as in PMID 9456275. The following applies: cited from earlier work.
For data set [7], the system named is Human umbilical vein endothelial cells (HUVECs). Also on record: method as in PMID 16141529. The following applies: cited from earlier work.
Data set [8] deals with Hypertensive model mice. Further details: method as in PMID 10405198. The note with it: cited from earlier work.
For data set [9], the system named is experimental animals. Further details: method as in PMID 22929438. The note with it: Several studies using experimental animals; cited from earlier work.
Data set [10] relates to Cardiac myocytes. Further details: method as in PMID 11444504. The following applies: cited from earlier work.
In data set [11] the test system is Squamous epithelial cancer cells. Further details: method as in PMID 20562912. The following applies: cited from earlier work.
The test system of data set [12] is Mesenchymal stem cells derived from rat bone marrow. Also on record: method as in PMID 17497701. The following applies: cited from earlier work.
Details of data set [13]: method as in PMID 23675421, PMID 7830729. The note with it: cited from earlier work.
The subject of data set [14] is cholesterol synthesis. The note with it: cited from earlier work.
Data set [15] relates to presynaptic GABA receptors. Also on record: method as in PMID 10369462, PMID 11906718. The following applies: through reduction of adrenergic vasoconstriction; cited from earlier work.
Details of data set [16]: method as in PMID 16256107, PMID 8930162. The following applies: cited from earlier work.
Setting [17] is: plasma, single administration, 40 mg/kg monacolin K or equivalent, individual rats 101-103, 201-203, 40 mg/kg.

Like-named read-outs stand apart in the source and are kept apart here.

With `C/C=C/C1=CC2=C(CO1)C(=O)[C@]1(C)OC(=O)[C@H](C(=O)CCCCCCC)[C@H]1C2` [ankaflavin], the LDL-cholesterol oxidation result in data set [1] is listed as “suppressed”. For the same molecule, the “action on PPARs, e.g., PPARα” value in [2] is on record as “agonist”.
Regarding `C/C=C/C1=CC2=C(CO1)C(=O)[C@]1(C)OC(=O)[C@H](C(=O)CCCCC)[C@H]1C2` [monascin], in [1], the LDL-cholesterol oxidation result is given as “suppressed”. Besides, in [2], the “action on PPARs, e.g., PPARα” value is listed as “agonist”.
Broadly, the Cmax is the peak of the concentration-time curve. In the case of `CC[C@H](C)C(=O)O[C@H]1C[C@@H](C)C=C2C=C[C@H](C)[C@H](CC[C@@H]3C[C@@H](O)CC(=O)O3)[C@H]21` [Monacolin K, monacolin K], the “form in which most of the monacolin K in the plasma was detected” value in [3] (after oral administration, male SD rats) is recorded as “acid form”. Moreover, the AUC(0-t) in data set [3] (plasma, 40 mg/kg, plasma, single administration, 40 mg/kg monacolin K or equivalent dose of red yeast rice, male SD rats, mean, read-out: AUC0–4h of monacolin K lactone, Mean) worked out at 2.48 ng·h/mL; in [3] (plasma, 40 mg/kg, plasma, single administration, 40 mg/kg monacolin K or equivalent, individual rats 101-103, 201-203, read-out: AUC0–4h of monacolin K lactone, individual animals), 3.11 ng·h/mL. For the same molecule, the Cmax was found to be 2.48 ng/mL in [3] (plasma, 40 mg/kg, plasma, single administration, 40 mg/kg monacolin K or equivalent dose of red yeast rice, male SD rats, mean, read-out: Cmax of monacolin K lactone, Mean) and 3.11 ng/mL in [3] (plasma, 40 mg/kg, plasma, single administration, 40 mg/kg monacolin K or equivalent, individual rats 101-103, 201-203, read-out: Cmax of monacolin K lactone, individual animals). The “AUC0–4h of monacolin K lactone, individual animals” value in data set [3] (setting [17]) is 1.85 ng·h/mL. The “Cmax of monacolin K lactone, individual animals” value in data set [3] (setting [17]) is 1.85 ng/mL. Further, the plasma viscosity entry in data set [4] is given as “decrease plasma viscosity”. Also, the “Effect of Monacolin K, atheroma formation” value is “Decrease in number of plaques in the aorta and lung artery” in [5]; “Inhibition of platelet aggregation, macrophage foam cell formation and LDL oxidation” in [6]; “Inhibition of NF-KB activation by CRP” in [7]. Also, the “Effect of Monacolin K, blood circulation” value in data set [8] is “Increase in renal blood flow”; in data set [9], “Increase in cerebral blood flow and cerebral vasomotor response”. The “Effect of Monacolin K, NOS signaling pathway” value in [10] was “Increase of IL-1 induced production of nitrite (Increase in NOS expression and NO production mediated by Rho inhibition)”; in [11] it was “Induction of expression of Rho family proteins”; in data set [12], “Activation (phosphorylation) of AI3K/Akt pathway and MEK 1/2 pathway”. Also, in data set [13], the “oxidation of LDL” value is “inhibits”. For the same molecule, in [13] (in hyperlipidemia), the “vascular endothelial function (vasoconstrictor reaction)” value is recorded as “improves”. Further, the “inhibition of cholesterol synthesis” value in data set [14] is given as “potent inhibitor of cholesterol synthesis”.
`NCCCC(=O)O` [GABA, γ-amino butyric acid]: the “effect on blood pressure” value in [15] is reported as “hypotensive effect”. Moreover, in data set [16], the “increases in blood pressure” value is reported as “suppresses” and the “sodium excretion from the kidneys” value was “promotes”.
As to `O=C1[C@H](CC[C@H](O)c2ccc(F)cc2)[C@@H](c2ccc(O)cc2)N1c1ccc(F)cc1` [ezetimibe], in data set [4], the plasma viscosity entry was “decrease plasma viscosity”.
